We go through 28 molecules from patent US9550768B2, “Kinase modulation and indications therefor” (PLEXXIKON INC., priority 2011, dated 2017).

The first test relates to leukemia cell that express either wild type FLT3 or FLT3-ITD mutations.
Assay: not given
Conditions: cited from earlier work.
Consider `C=CCNC1=C2C[C@@H](C)C[C@H](OC)[C@H](O)[C@@H](C)/C=C(\C)[C@H](OC(N)=O)[C@@H](OC)/C=C\C=C(/C)C(=O)NC(=CC1=O)C2=O` [Compound 17AAG], for which the “growth of leukemia cells” value is listed as “inhibited”.

A further test concerns the target T1, FLT3 (Homo sapiens, UniProt P36888).
T1 construct: purchased Invitrogen PV3182
T1 sequence (P36888 564-993 limits assumed): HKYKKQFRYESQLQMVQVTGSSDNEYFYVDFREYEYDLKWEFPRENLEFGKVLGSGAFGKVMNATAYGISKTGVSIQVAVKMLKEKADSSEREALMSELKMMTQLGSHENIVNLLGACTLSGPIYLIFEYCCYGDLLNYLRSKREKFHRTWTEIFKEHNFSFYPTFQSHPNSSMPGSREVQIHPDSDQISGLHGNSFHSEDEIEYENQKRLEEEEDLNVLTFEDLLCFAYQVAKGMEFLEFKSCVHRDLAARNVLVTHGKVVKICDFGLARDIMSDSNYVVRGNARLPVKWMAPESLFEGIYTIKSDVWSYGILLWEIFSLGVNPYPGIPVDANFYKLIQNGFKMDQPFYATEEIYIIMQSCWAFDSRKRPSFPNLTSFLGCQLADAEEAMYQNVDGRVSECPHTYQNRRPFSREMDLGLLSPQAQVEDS
In words: Flt3 biochemical assay (AlphaScreen, recombinant enzyme). The note with it: recombinant FLT3, ATP 100 μM, room temperature, 60 minutes.
From the text: Using AlphaScreen™ technology, the ability of the compounds to affect the catalytic activity of the kinases can be measured quantitatively. The peptide substrate is immobilized by the AlphaScreen™ Streptavidin Donor beads and, upon phosphorylation by a tyrosine kinase, can bind to AlphaScreen™ Anti-Phosphotyrosine (PY20) Acceptor beads. Upon excitation of these beads with laser light at 680 nm, singlet oxygen is produced. This singlet oxygen is rapidly quenched, unless the AlphaScreen™ Anti-Phosphotyrosine (PY20) Acceptor beads are in close proximity, in which case a proximity signal can be measured at 580 nm. In the presence of catalytic activity, there is a very strong proximity signal.
Centrifuge 1 minute, shake to mix, and incubate as follows:
• Mix Streptavidin Donor beads at 6× final concentration in Stop/Detection buffer. • Add 5 μL Streptavidin Donor beads to the reaction plate.
As a reminder, the IC50 is the midpoint of a concentration-inhibition curve. Turning to `COc1ccc(CNc2ccc(Cc3c[nH]c4ncc(Cl)cc34)cn2)cn1` [Compound P-0283, [5-(5-Chloro-1H-pyrrolo[2,3-b]pyridin-3-ylmethyl)-pyridin-2-yl]-(6-methoxy-pyridin-3-ylmethyl)-amine], the IC50 was less than 100 nM.
With `Fc1cccc(CNc2ncc(Cc3c[nH]c4ncc(Cl)cc34)cn2)c1` [Compound P-0442, [5-(5-Chloro-1H-pyrrolo[2,3-b]pyridin-3-ylmethyl)-pyrimidin-2-yl]-(3-fluoro-benzyl)-amine], the IC50 is less than 100 nM.
Regarding `Fc1ccc(C(F)(F)F)c(CNc2ncc(Cc3c[nH]c4ncc(Cl)cc34)cn2)c1` [Compound P-0391, [5-(5-Chloro-1H-pyrrolo[2,3-b]pyridin-3-ylmethyl)-pyrimidin-2-yl]-(5-fluoro-2-trifluoromethyl-benzyl)-amine], the IC50 was less than 10000 nM.
In the case of `CCc1ccccc1CNc1ccc(Cc2c[nH]c3ncccc23)cn1` [Compound P-0383, (2-Ethyl-benzyl)-[5-(1H-pyrrolo[2,3-b]pyridin-3-ylmethyl)-pyridin-2-yl]-amine], the IC50 is less than 1000 nM.
Take `COc1cnc2[nH]cc(Cc3ccc(NCc4ccccc4C(F)(F)F)nc3)c2c1` [Compound P-0326, [5-(5-Methoxy-1H-pyrrolo[2,3-b]pyridin-3-ylmethyl)-pyridin-2-yl]-(2-trifluoromethyl-benzyl)-amine]: the IC50 is less than 100 nM.
Consider `CNc1ncccc1CNc1ccc(Cc2c[nH]c3ncccc23)cn1` [Compound P-0385, Methyl-(3-{[5-(1H-pyrrolo[2,3-b]pyridin-3-ylmethyl)-pyridin-2-ylamino]-methyl}-pyridin-2-yl)-amine], for which the IC50 was less than 1000 nM.
As for `N#Cc1cnc2[nH]cc(Cc3ccc(NCc4cncc(F)c4)nc3F)c2c1` [Compound P-0415, 3-{2-Fluoro-6-[(5-fluoro-pyridin-3-ylmethyl)-amino]-pyridin-3-ylmethyl}-1H-pyrrolo[2,3-b]pyridine-5-carbonitrile], the IC50 was less than 1000 nM.
On to `CN(C)c1ccccc1CNc1ncc(Cc2c[nH]c3ncc(Cl)cc23)cn1` [Compound P-0449, [5-(5-Chloro-1H-pyrrolo[2,3-b]pyridin-3-ylmethyl)-pyrimidin-2-yl]-(2-dimethylamino-benzyl)-amine], for which the IC50 is less than 10 nM.
On the same count and under the same terms, the same measure for `Fc1ccc(CNc2nc(Cl)c(Cc3c[nH]c4ncc(Cl)cc34)s2)cc1` [Compound P-0195, [4-Chloro-5-(5-chloro-1H-pyrrolo[2,3-b]pyridin-3-ylmethyl)-thiazol-2-yl]-(4-fluoro-benzyl)-amine]: less than 100 nM; for `CN(C)c1ncccc1CNc1ccc(Cc2c[nH]c3ncccc23)cn1` [Compound P-0399, Dimethyl-(3-{[5-(1H-pyrrolo[2,3-b]pyridin-3-ylmethyl)-pyridin-2-ylamino]-methyl}-pyridin-2-yl)-amine]: less than 100 nM; for `COc1cnc2[nH]cc(Cc3ccc(NCc4ccc(C(F)(F)F)nc4)nc3F)c2c1` [Compound P-0187, [6-Fluoro-5-(5-methoxy-1H-pyrrolo[2,3-b]pyridin-3-ylmethyl)-pyridin-2-yl]-(6-trifluoromethyl-pyridin-3-ylmethyl)-amine]: less than 10 nM.
Consider `COc1ccc(CNc2ccc(Cc3c[nH]c4ncc(C#N)cc34)cn2)cn1` [Compound P-0284, 3-{6-[(6-Methoxy-pyridin-3-ylmethyl)-amino]-pyridin-3-ylmethyl}-1H-pyrrolo[2,3-b]pyridine-5-carbonitrile], for which the IC50 was less than 1000 nM.
Same read-out and setting: in the case of `FC(F)(F)c1ccc(CNc2ncc(Cc3c[nH]c4ncc(Cl)cc34)cn2)cn1` [Compound P-0429, [5-(5-Chloro-1H-pyrrolo[2,3-b]pyridin-3-ylmethyl)-pyrimidin-2-yl]-(6-trifluoromethyl-pyridin-3-ylmethyl)-amine] it was less than 100 nM; in that of `Cc1cc(F)ccc1CNc1ccc(Cc2c[nH]c3ncccc23)cn1` [Compound P-0372, (4-Fluoro-2-methyl-benzyl)-[5-(1H-pyrrolo[2,3-b]pyridin-3-ylmethyl)-pyridin-2-yl]-amine], less than 100 nM.
Consider `Clc1ccc(Cl)c(CNc2ccc(Cc3c[nH]c4ncccc34)cn2)c1` [Compound P-0380, (2,5-Dichloro-benzyl)-[5-(1H-pyrrolo[2,3-b]pyridin-3-ylmethyl)-pyridin-2-yl]-amine], for which the IC50 was less than 1000 nM.
Regarding `COc1cnc2[nH]cc(Cc3ccc(NCc4cc(F)ccc4F)nc3)c2c1` [Compound P-0330, (2,5-Difluoro-benzyl)-[5-(5-methoxy-1H-pyrrolo[2,3-b]pyridin-3-ylmethyl)-pyridin-2-yl]-amine], the concentration for half-maximal inhibition (IC50) is less than 1000 nM.
In the case of `COc1ccccc1CNc1ncc(Cc2c[nH]c3ncc(Cl)cc23)cn1` [Compound P-0433, [5-(5-Chloro-1H-pyrrolo[2,3-b]pyridin-3-ylmethyl)-pyrimidin-2-yl]-(2-methoxy-benzyl)-amine], the IC50 is less than 1000 nM.
For the molecule `N#Cc1cnc2[nH]cc(Cc3ccc(NCc4ccc(Cl)cc4)nc3F)c2c1` [Compound P-0432, 3-[6-(4-Chloro-benzylamino)-2-fluoro-pyridin-3-ylmethyl]-1H-pyrrolo[2,3-b]pyridine-5-carbonitrile], the IC50 is less than 100 nM.
Take `C[C@H](Nc1ncc(Cc2c[nH]c3ncc(Cl)cc23)cn1)c1ccc(F)cc1` [Compound P-0428, [5-(5-Chloro-1H-pyrrolo[2,3-b]pyridin-3-ylmethyl)-pyrimidin-2-yl]-[(S)-1-(4-fluoro-phenyl)-ethyl]-amine]: the IC50 is less than 1000 nM.
Consider `Fc1cncc(CNc2ccc(Cc3c[nH]c4ncc(Cl)cc34)cn2)c1` [Compound P-0324, [5-(5-Chloro-1H-pyrrolo[2,3-b]pyridin-3-ylmethyl)-pyridin-2-yl]-(5-fluoro-pyridin-3-ylmethyl)-amine], for which the IC50 is less than 1000 nM.
Consider `Fc1ccc(Cl)c(CNc2ncc(Cc3c[nH]c4ncc(Cl)cc34)cn2)c1` [Compound P-0408, (2-Chloro-5-fluoro-benzyl)-[5-(5-chloro-1H-pyrrolo[2,3-b]pyridin-3-ylmethyl)-pyrimidin-2-yl]-amine], for which the IC50 was less than 1000 nM.
Turning to `Fc1cnc2[nH]cc(Cc3ccc(NCc4c(F)cccc4F)nc3)c2c1` [Compound P-0333, (2,6-Difluoro-benzyl)-[5-(5-fluoro-1H-pyrrolo[2,3-b]pyridin-3-ylmethyl)-pyridin-2-yl]-amine], the IC50 was less than 10000 nM.
For `COc1ccc(CNc2ccc(Cc3c[nH]c4ncc(C)cc34)cn2)cn1` [Compound P-0282, (6-Methoxy-pyridin-3-ylmethyl)-[5-(5-methyl-1H-pyrrolo[2,3-b]pyridin-3-ylmethyl)-pyridin-2-yl]-amine], the half-maximal inhibitory concentration (IC50) was less than 100 nM.
Take `N#Cc1cnc2[nH]cc(Cc3ccc(NCc4ccc(C(F)(F)F)nc4)nc3Cl)c2c1` [Compound P-0232, 3-{2-Chloro-6-[(6-trifluoromethyl-pyridin-3-ylmethyl)-amino]-pyridin-3-ylmethyl}-1H-pyrrolo[2,3-b]pyridine-5-carbonitrile]: the IC50 is less than 100 nM.
Regarding `COc1cnc2[nH]cc(Cc3ccc(NCc4ccc(OC)nc4)nc3)c2c1` [Compound P-0332, (6-Methoxy-pyridin-3-ylmethyl)-[5-(5-methoxy-1H-pyrrolo[2,3-b]pyridin-3-ylmethyl)-pyridin-2-yl]-amine], the IC50 is less than 100 nM.
On to `CC(Nc1ncc(Cc2c[nH]c3ncc(Cl)cc23)cn1)c1ccc(Cl)cc1` (stereo not shown) [Compound P-0427, [1-(4-Chloro-phenyl)-ethyl]-[5-(5-chloro-1H-pyrrolo[2,3-b]pyridin-3-ylmethyl)-pyrimidin-2-yl]-amine], for which the IC50 was less than 1000 nM.
As for `COc1ccc(CNc2ccc(Cc3c[nH]c4ncccc34)cn2)c(OC)n1` [Compound P-0370, (2,6-Dimethoxy-pyridin-3-ylmethyl)-[5-(1H-pyrrolo[2,3-b]pyridin-3-ylmethyl)-pyridin-2-yl]-amine], the IC50 is less than 100 nM.
